The text below walks through data of patent publication US20050272824A1, “Methods for monitoring combretastatin resistance” (priority 2004, published 2005).

Broadly, the IC50 is the midpoint of a concentration-inhibition curve.

Entries after “also recorded” stand apart in the source; their conditions may differ. Where two headings read alike, the source gives them in different places.

Experiment [1] deals with CEM. Description: In vitro cytotoxicity (modified MTT) assay, CEM. The format is cell-based. As to conditions: Acute Lymphoblastic Leukemia, MTT after 48 h, average of three independent experiments in triplicate. How it is done: (§1) A panel of cells lines obtained from American Type Culture Collection (Rockville, Md., USA) was initially assayed against CA-4 to screen for drug sensitivity. The human non-small cell lung carcinoma (NSCLC), NCI-H460, was selected for resistance based on significant cytotoxicity. H460 cells were grown and maintained in RPMI-1640 supplemented with penicillin-streptomycin, Fungizone® and 10% heat inactivated fetal bovine serum (Invitrogen, Carlsbad, Calif., USA) and maintained at 37° C. humidified 5% CO2 atmosphere. H460 parental cell line was selected for resistance to CA-4, paclitaxel or vinblastine by incubation with stepwise increments of each drug, beginning at 2 nM. Cells were treated with the drugs for 24 h, once a week, and every 2-3 weeks, drug dose was increased by 2 nM increments until 30 nM drug resistance was reached. To select non-MDR resistant cell lines, cells were evolved in the presence of verapamil, an inhibitor of P-glycoprotein (P-gp) drug efflux pump that produces a MDR phenotype. Resistance was maintained by acute 24 h exposure to the corresponding drug and verapamil once a month. […]
(§2) Cytoxicity assays was assessed using a modified MTT assay (Mosmann, 1983). […] Percentage survival was calculated as the OD560 of the treated sample divided by the OD560 of the untreated control cell line. […]

Experiment [2] deals with MOLT4. As to the kind of experiment: In vitro cytotoxicity (modified MTT) assay, MOLT4. The format is cell-based. As to conditions: MOLT4, Acute Lymphoblastic Leukemia; MTT after 48 h; average of three independent experiments in triplicate. The procedure: as §1, §2
Experiment [3] concerns HT29. Description: In vitro cytotoxicity (modified MTT) assay, HT29. The class given is cell-based. As to conditions: HT29, Colorectal Adenocarcinoma; MTT after 48 h; average of three independent experiments in triplicate. How it is done:
as §1, §2

The subject of experiment [4] is MCF7. As to the kind of experiment: In vitro cytotoxicity (modified MTT) assay, MCF7. The format is cell-based. As to conditions: MCF7, Mammary Gland Adenocarcinoma; MTT after 48 h; average of three independent experiments in triplicate. How it is done:
as §1, §2

Experiment [5] deals with NCI-H460. Description: In vitro cytotoxicity (modified MTT) assay, H460 parental. The format is cell-based, human. As to conditions: MTT after 48 h. The procedure: (§3) A panel of cells lines obtained from American Type Culture Collection (Rockville, Md., USA) was initially assayed against CA-4 to screen for drug sensitivity. The human non-small cell lung carcinoma (NSCLC), NCI-H460, was selected for resistance based on significant cytotoxicity. H460 cells were grown and maintained in RPMI-1640 supplemented with penicillin-streptomycin, Fungizone® and 10% heat inactivated fetal bovine serum (Invitrogen, Carlsbad, Calif., USA) and maintained at 37° C. humidified 5% CO2 atmosphere. H460 parental cell line was selected for resistance to CA-4, paclitaxel or vinblastine by incubation with stepwise increments of each drug, beginning at 2 nM. Cells were treated with the drugs for 24 h, once a week, and every 2-3 weeks, drug dose was increased by 2 nM increments until 30 nM drug resistance was reached. To select non-MDR resistant cell lines, cells were evolved in the presence of verapamil, an inhibitor of P-glycoprotein (P-gp) drug efflux pump that produces a MDR phenotype. Resistance was maintained by acute 24 h exposure to the corresponding drug and verapamil once a month. All cells used for the experiments were grown logarithmically in drug-free medium at least a week before experiments.
(§4) Cytoxicity assays was assessed using a modified MTT assay (Mosmann, 1983). MTT (3-(4,5-dimethylthiazol-2-yl)-2,5-diphenyl tetrazolium bromide, MTT) was purchased from Sigma (St. Louis, Mo., USA). For each drug treatment, triplicate wells were seeded (5.0×10^3/well) and conditioned overnight. Drugs were prepared by serial dilution with RPMI media and added to the corresponding wells. After 48 h, the MTT assay was performed. Percentage survival was calculated as the OD560 of the treated sample divided by the OD560 of the untreated control cell line. Cell lines were tested with cisplatin to test for non-MDR phenotype.
To select a moderately sensitive cell line for drug-resistance, a panel of susceptible tumor cell lines was screened for CA-4 cytotoxicity. Table 1 depicts the average in vitro cytotoxicity (IC50) values for three independent experiments with each experiment run in triplicate.

The test system of experiment [6] is BXPC3. As to the kind of experiment: In vitro cytotoxicity (modified MTT) assay, BXPC3. As to conditions: BXPC3, Pancreatic Adenocarcinoma; MTT after 48 h; average of three independent experiments in triplicate. The class given is cell-based. How it is done: as §1, §2
Experiment [7] deals with DU145. Description: In vitro cytotoxicity (modified MTT) assay, DU145. The class given is cell-based. As to conditions: DU145, Prostate Carcinoma; MTT after 48 h; average of three independent experiments in triplicate. How it is done:
as §1, §2

Experiment [8] relates to C30 (H460 cells selected at 30 nM CA-4). As to the kind of experiment: In vitro cytotoxicity assay of resistant cell line C30. The class given is cell-based, human. As to conditions: for IC50: C30 cells (H460 selected at 30 nM CA-4), MTT after 48 h; for C30 Resistance Factor: C30 cells relative to parental H460. The procedure:
as §3, with “The human non-small cell lung carcinoma (NSCLC), NCI-H460, was selected for resistance based on significant cytotoxicity.” left out
as §4
(§5) C30, P30, and V30 cell lines represent H460 parental cells selected at 30 nM CA-4, paclitaxel, and vinblastine, respectively. […] Cisplatin, an anti-cancer agent with a non-tubulin-binding mode of action was assayed against the cell lines to test for […].

In experiment [9] the test system is P30 (H460 cells selected at 30 nM paclitaxel). Description: In vitro cytotoxicity assay of resistant cell line P30. As to conditions: for IC50: P30 cells (H460 selected at 30 nM paclitaxel), MTT after 48 h; for P30 Resistance Factor: P30 cells relative to parental H460. The format is cell-based, human. The procedure:
as §3, with “The human non-small cell lung carcinoma (NSCLC), NCI-H460, was selected for resistance based on significant cytotoxicity.” left out
as §4, §5

Experiment [10] concerns V30 (H460 cells selected at 30 nM vinblastine). Description: In vitro cytotoxicity assay of resistant cell line V30. The format is cell-based, human. As to conditions: for IC50: V30 cells (H460 selected at 30 nM vinblastine), MTT after 48 h; for V30 Resistance Factor: V30 cells relative to parental H460. How it is done:
as §3, with “The human non-small cell lung carcinoma (NSCLC), NCI-H460, was selected for resistance based on significant cytotoxicity.” left out
as §4, §5

The mark [11] stands for this setting: H460 parental cells, Table 2, read-out: H460 wild-type IC50.
Setting [12] is: Homo sapiens, NCI-H460, H460 parental cells, Table 2, read-out: H460 wild-type IC50.

For `COc1ccc(/C=C\c2cc(OC)c(OC)c(OC)c2)cc1O` [CA-4, Combretastatin A-4], the half-inhibitory concentration (IC50) in experiment [1] is 0.00025 µM; in [2], 0.0041 µM; in experiment [3], 55.1 µM; in experiment [4], 165 µM; in [5] (H460, Non-Small Cell Lung Carcinoma, Table 1 screen, average of three independent experiments in triplicate, read-out: IC50), 0.0073 µM; in experiment [5] (setting [11]), 0.007 ± 0.0006 µM. Besides, the IC50 in [6] was 57 µM; in [7], 0.0077 µM; in experiment [8], 0.019 µM; in experiment [9] it was 0.0085 ± 0.0002 µM; in experiment [10] it was 0.0092 ± 0.0006 µM.
For `N.N.[Cl][Pt][Cl]` [Cisplatin], the IC50 came to 0.02 ± 0.0026 µM in experiment [5] (setting [11]), 0.0167 ± 0.0032 µM in experiment [8], 0.0253 ± 0.0031 µM in experiment [9] and 0.0217 ± 0.0006 µM in [10].
Consider `CC(=O)O[C@H]1C(=O)[C@@]2(C)[C@H]([C@H](OC(=O)c3ccccc3)[C@]3(O)C[C@H](OC(=O)[C@H](O)[C@@H](NC(=O)c4ccccc4)c4ccccc4)C(C)=C1C3(C)C)[C@]1(OC(C)=O)CO[C@@H]1C[C@@H]2O` [Paclitaxel], for which the IC50 in experiment [5] (setting [12]) came to 0.0081 ± 0.0004 µM; in experiment [8] (Homo sapiens, NCI-H460), 0.08 ± 0.002 µM; in experiment [9] (Homo sapiens, NCI-H460), 0.077 ± 0.0049 µM; in [10] (Homo sapiens, NCI-H460) it was 0.087 ± 0.0036 µM. Moreover, the “C30 Resistance Factor” value in [8] is listed as 9.9 ± 0.6; in experiment [8] (listed as paclitaxel), “tenfold”. In addition, the figures for the “P30 Resistance Factor” value in [9] and in experiment [9] (listed as paclitaxel) were 9.6 ± 1.0 and “tenfold”, respectively. Further, the “V30 Resistance Factor” value in experiment [10] is reported as 10.8 ± 1.0; in [10] (listed as paclitaxel) it was “eleven fold; also recorded: tenfold”.
As for `CC[C@]1(O)C[C@@H]2CN(CCc3c([nH]c4ccccc34)[C@@](C(=O)OC)(c3cc4c(cc3OC)N(C)[C@H]3[C@@](O)(C(=O)OC)[C@H](OC(C)=O)[C@]5(CC)C=CCN6CC[C@]43[C@@H]65)C2)C1` [Vinblastine], the IC50 in experiment [5] (setting [12]) is 0.0059 ± 0.0001 µM; in experiment [8] (Homo sapiens, NCI-H460), 0.006 ± 0.0003 µM; in [9] (Homo sapiens, NCI-H460), 0.0157 ± 0.0042 µM; in [10] (Homo sapiens, NCI-H460) it was 0.0263 ± 0.0021 µM. Further, the “C30 Resistance Factor” value in experiment [8] was 1.0 ± 0.0; in experiment [8] (listed as vinblastine) it was “negligibly resistant”. Also, the “P30 Resistance Factor” value in experiment [9] is reported as 2.7 ± 0.7; in experiment [9] (listed as vinblastine), “threefold”. Moreover, the “V30 Resistance Factor” value in experiment [10] is reported as 4.5 ± 0.4; in experiment [10] (listed as vinblastine), “fivefold”.
